Laboratory results as given in patent publication US6528251B2, “Method of managing the chemotherapy of patients who are HIV positive based on the phenotypic drug sensitivity of human HIV strains” (Virco N.V., priority 1996, dated 2003).
Like-named read-outs stand apart in the source and are kept apart here.

Experiments:
Assay type in all cases: cell-based, HIV-1
[1] = test system: recombinant virus from patient viral RNA (Example 5, 3TC resistant HIV strains); assay: Recombinant virus assay (MT4/MTT), patient of Example 5 (AZT, then AZT+3TC therapy); conditions: for ratio (1)/(2): Table 1, patient mean IC50 / recIIIB IC50, Example 5
Procedure: (§1) RNA was isolated from 100 μl of plasma according to the method described by Boom, R. et al. (1990, supra), and was reverse transcribed with the GeneAmp reverse transcriptase kit (Perkin Elmer) as described by the manufacturer and using an HIV-1 specific downstream primer (OUT3: 5′-CATTGCTCTCCAATTACTGTGATATTTCTCATC-3′; SEQ ID NO: 1). PCR on reverse transcribed RNA was performed with inner and outer primers as described by Kellam, P. and Larder, B. A. (1994, supra). After chloroform extraction and centrifugation on Centricon 100 columns or centrifugation on anion-exchange spin columns (Quiagen), the isolated PCR product was ready for use in the transfection reactions.
(§2) MT4 cells were subcultured at a density of 250,000 cells/ml before transfection (exponential growth phase). Cells were pelleted and resuspended in phosphate buffered saline (PBS) at a concentration of […]. A 0.8 ml portion (2.5 10E6 cells/ml) was used for each transfection. Transfection was performed with the Bio-Rad Gene pulser making use of 0.4 cm electrode cuvettes. Cells were electroporated in the presence of […] of linearised pHIVΔRT plasmid and approximately 5 μg of RT PCR product at 250SF and 300 V, followed by a 30-min incubation at room temperature. Subsequently, 10 ml of fresh culture medium was added to the cell suspension and incubation was performed at 37° C. in a humidified atmosphere of 5% CO2.
(§3) During 7 to 10 days following the transfection, cells were monitored for the appearance of cytopathogenic effect (CPE). In the absence thereof, cells were subcultured in different flasks. Subsequently, culture supernatants of transfected cells were used to create a stock of recombinant virus and stored in 1.5 ml aliquots at −70° C.
(§4) After titration of the new viruses, the stocks were used for antiviral experiments in the presence of serial dilutions of different HIV inhibitors. Titres of the harvested supematants were determined by limited serial dilution titration of virus in MT4 cells.
(§5) Viruses with a useful titre were used in antiviral experiments. For this purpose, 96-well microtitre plates were filled with 100μl of complete culture medium. Subsequently, stock solutions of compounds were added in 25 μl volumes to series of duplicate wells. HIV- and mock-infected cell samples were included for each drug (or drug combination). Exponentially growing MT4 cells were then transferred to the microtitre plates at a density of 150,000 cells/ml. The cell cultures were then incubated at 37° C. in a humidified atmosphere of 5% CO2. Five days after infection, the viability of the mock- and HIV-infected cells was examined spectrophotometrically by the M1T method (Pauwels, R. et al. J. Virol. Meth. (1988), 20: 309-321) as described in Section 6 below.
(§6) To each well of the microtiter plates, 20 μl of a solution of MTT (7.5 mg/ml in PBS) was added. The plates were further incubated at 37° C. for 1 h. Then, 150 μl of medium was removed without disturbing the MT4 cell clusters containing the formazan crystals. Solubilization of the formazan crystals was achieved by adding 100 μl 5% Triton X-100 in acidified isopropanol (5 ml concentrated HCl per liter solvent). Complete dissolution of the formazan crystals was obtained after the plates had been placed on a plate shaker for 10 min. Finally the absorbances were read at two wavelengths (540 and 690 nm). From these optical density (OD) data, 50% inhibitory (IC50) and 50% cytotoxic (CC50) concentrations were derived.
An HIV infected patient who received AZT from December 1989 until an undocumented later date, and switched to a combined chemotherapy of AZT+3TC (1:1) from February 1994 until October 1995 donated plasma whose susceptibility to a number of RT inhibitors was determined according to the above described protocol of Example 1. Recombinant wild type HIV strain recIIIB was used in said protocol as a reference HIV virus.

[2] = test system: recombinant virus from patient viral RNA (Example 6, drug-naive patient); assay: Recombinant virus assay (MT4/MTT), drug-naive patient of Example 6; conditions: for IC50: Human immunodeficiency virus 1, Table 2, Example 6 patient virus; for ratio (1)/(2): Table 2, patient mean IC50 / recIIIB IC50, Example 6
Procedure: as §1, §2, §3, §4, §5, §6
A drug-naive HIV infected patient donated plasma whose susceptibility to a number of RT inhibitors was determined according to the above described protocol of Example 1. Recombinant wild type HIV strain recIIIB was used in said protocol as a reference HIV virus.

[3] = test system: recombinant virus from patient viral RNA (Example 9); assay: Recombinant virus assay (MT4/MTT), patient of Example 9 (multiple nucleoside analogue RT-inhibitors); conditions: for IC50: Human immunodeficiency virus 1, Table 5, Example 9 patient virus; for ratio (1)/(2): Table 5, patient mean IC50 / recIIIB IC50, Example 9
Procedure: as §1, §2, §3, §4, §5, §6
An HIV-infected patient with a therapy history including multiple nucleoside analogue RT-inhibitors donated plasma whose susceptibility to a number of RT inhibitors was determined according to the protocol set out in Example 1. Recombinant wild type HIV strain recIIIB was used as a reference HIV virus.

[4] = test system: Recombinant wild type HIV strain recIIIB; assay: Antiviral MT4/MTT assay with reference virus recIIIB
Procedure: as §4, §5, §6

[5] = test system: recombinant virus from patient viral RNA (Example 8); assay: Recombinant virus assay (MT4/MTT), patient of Example 8 (therapy history AZT, 3TC and loviride); conditions: for IC50: Human immunodeficiency virus 1, Table 4, Example 8 patient virus; for ratio (1)/(2): Table 4, patient mean IC50 / recIIIB IC50, Example 8
Procedure: as §1, §2, §3, §4, §5, §6
An HIV-infected patient with a therapy history including AZT, 3TC and loviride donated plasma whose susceptibility to a number of RT inhibitors was determined according to the protocol set out in Example 1. Recombinant wild type HIV strain recIIIB was used as a reference HIV virus.

[6] = test system: recombinant virus from patient viral RNA (Example 7, drug-naive patient); assay: Recombinant virus assay (MT4/MTT), drug-naive patient of Example 7; conditions: for IC50: Human immunodeficiency virus 1, Table 3, Example 7 patient virus; for ratio (1)/(2): Table 3, patient mean IC50 / recIIIB IC50, Example 7
Procedure: as §1, §2, §3, §4, §5, §6
A drug-naive HIV-infected patient donated plasma whose susceptibility to a number of RT inhibitors was determined according to the protocol set out in Example 1. Recombinant wild type HIV strain recIIIB was used as a reference HIV virus.

[7] = Human immunodeficiency virus 1, Table 1, Example 5 patient virus, MT4 cells, read-out: Anti-HIV-1 activity IC50 (μM) Exp. 1
[8] = Human immunodeficiency virus 1, Table 1, Example 5 patient virus, MT4 cells, read-out: Anti-HIV-1 activity IC50 (μM) Exp. 2
[9] = Human immunodeficiency virus 1, Table 1, Example 5 patient virus, mean of Exp. 1 and 2, read-out: Anti-HIV-1 activity IC50 (μM) Mean (1)
[10] = MT4 cells, read-out: Anti-HIV-1 activity IC50 (μM) Exp. 1
[11] = MT4 cells, read-out: Anti-HIV-1 activity IC50 (μM) Exp. 2
[12] = mean of Exp. 1 and 2, read-out: Anti-HIV-1 activity IC50 (μM) Mean (1)
[13] = mean, read-out: Anti-HIV-1 activity IC50 (μM) Mean (1)
[14] = Human immunodeficiency virus 1, Table 1, reference run of Example 5, read-out: Anti-HIV-1 activity IC50 (μM) recIIIB ref (2)
[15] = Human immunodeficiency virus 1, Table 2, reference run of Example 6, read-out: Anti-HIV-1 activity IC50 (μM) recIIIB ref (2)
[16] = Human immunodeficiency virus 1, Table 3, reference run of Example 7, read-out: Anti-HIV-1 activity IC50 (μM) recIIIB ref (2)
[17] = Human immunodeficiency virus 1, Table 4, reference run of Example 8, read-out: Anti-HIV-1 activity IC50 (μM) recIIIB ref (2)
[18] = Human immunodeficiency virus 1, Table 5, reference run of Example 9, read-out: Anti-HIV-1 activity IC50 (μM) recIIIB ref (2)

SMILES: Nc1ccn([C@H]2CC[C@@H](CO)O2)c(=O)n1 [ddC, zalcitabine]
- IC50 [1, 7]: 0.2 µM
- IC50 [1, 8]: 0.2 µM
- IC50 [1, 9]: 0.2 µM
- ratio (1)/(2) [1]: 0.5
- IC50 [2, 10]: 1.45 µM
- IC50 [2, 11]: 1.47 µM
- IC50 [2, 12]: 1.46 µM
- ratio (1)/(2) [2]: 1
- IC50 [3, 10]: 60.1 µM
- IC50 [3, 11]: 73 µM
- IC50 [3, 13]: 66.6 µM
- ratio (1)/(2) [3]: 19
- IC50 [4, 14]: 0.38 µM
- IC50 [4, 15]: 2.21 µM
- IC50 [4, 16]: 1.62 µM
- IC50 [4, 17]: 1.93 µM
- IC50 [4, 18]: 3.44 µM
- IC50 [5, 10]: 9.29 µM
- IC50 [5, 11]: 8.51 µM
- IC50 [5, 13]: 8.9 µM
- ratio (1)/(2) [5]: 5
- IC50 [6, 10]: 1.04 µM
- IC50 [6, 11]: 1.39 µM
- IC50 [6, 13]: 1.22 µM
- ratio (1)/(2) [6]: 0.8

SMILES: Cc1cn([C@H]2C=C[C@@H](CO)O2)c(=O)[nH]c1=O [d4T, stavudine]
- IC50 ([1]; Human immunodeficiency virus 1, MT4, read-out: Anti-HIV-1 activity IC50 (μM) Exp. 1): 0.07 µM
- IC50 ([1]; Human immunodeficiency virus 1, MT4, read-out: Anti-HIV-1 activity IC50 (μM) Exp. 2): 0.49 µM
- IC50 ([1]; Human immunodeficiency virus 1, read-out: Anti-HIV-1 activity IC50 (μM) Mean (1)): 0.06 µM
- ratio (1)/(2) [1]: 0.5
- IC50 [2, 10]: 1.31 µM
- IC50 [2, 11]: 0.97 µM
- IC50 [2, 12]: 1.14 µM
- ratio (1)/(2) [2]: 1
- IC50 [3, 10]: > 100 µM
- IC50 [3, 11]: > 100 µM
- IC50 [3, 13]: > 100 µM
- ratio (1)/(2) [3]: >8
- IC50 [4, 15]: 1.74 µM
- IC50 [4, 16]: 1.37 µM
- IC50 [4, 17]: 5.46 µM
- IC50 [4, 18]: 12 µM
- IC50 ([4]; Human immunodeficiency virus 1, read-out: Anti-HIV-1 activity IC50 (μM) recIIIB ref (2), Table 1, reference run of Example 5): 0.12 µM
- IC50 [5, 10]: 7.5 µM
- IC50 [5, 11]: 7.1 µM
- IC50 [5, 13]: 7.3 µM
- ratio (1)/(2) [5]: 1
- IC50 [6, 10]: 1.14 µM
- IC50 [6, 11]: 1.66 µM
- IC50 [6, 13]: 1.4 µM
- ratio (1)/(2) [6]: 1

SMILES: Nc1ccn([C@@H]2CS[C@H](CO)O2)c(=O)n1 [3TC, lamivudine]
- IC50 [1, 7]: 31.6 µM
- IC50 [1, 8]: 100 µM
- IC50 [1, 9]: 65.8 µM
- ratio (1)/(2) [1]: 118
- IC50 [2, 10]: 1.81 µM
- IC50 [2, 11]: 2.02 µM
- IC50 [2, 12]: 1.91 µM
- ratio (1)/(2) [2]: 1
- IC50 [3, 10]: > 100 µM
- IC50 [3, 11]: > 100 µM
- IC50 [3, 13]: > 100 µM
- ratio (1)/(2) [3]: >6
- IC50 [4, 14]: 0.56 µM
- IC50 [4, 15]: 3.08 µM
- IC50 [4, 16]: 1.38 µM
- IC50 [4, 17]: 6.3 µM
- IC50 [4, 18]: 16.7 µM
- IC50 ([4]; Human immunodeficiency virus 1, Table 6, reference run of Example 10, read-out: Anti-HIV-1 activity IC50 (μM) recIIIB ref (2)): 4.61 µM
- IC50 ([4]; Human immunodeficiency virus 1, read-out: Anti-HIV-1 activity IC50 (μM) recIIIB ref (2), Table 7, reference run of Example 11): 5.18 µM
- IC50 ([4]; Human immunodeficiency virus 1, read-out: Anti-HIV-1 activity IC50 (μM) recIIIB ref (2), Table 8, reference run of Example 12): 4.61 µM
- IC50 [5, 10]: > 100 µM
- IC50 [5, 11]: > 100 µM
- IC50 [5, 13]: > 100 µM
- ratio (1)/(2) [5]: >16
- IC50 [6, 10]: 2.17 µM
- IC50 [6, 13]: 2.17 µM
- ratio (1)/(2) [6]: 2
